Each structure is given as a SMILES string.

Series [1] concerns caspase-3-like activities in STS-induced BV2 and HeLa cells. Kind of series: TPFM live-cell imaging of STS-induced apoptotic cells. In kind it is cell-based, mouse, human. As to conditions: BV2 (STS 2 μM) and HeLa (STS 1 μM) cells, 4 h STS, probe 24 μM 1 h; not in mock cells. Here is the method: Figure 3 Bioimaging of active caspases in live cells. TPFM (λex = 760 nm; λem = 480-550 nm for all AAN-probes) of STS-induced (a) BV2 cells (2 μM, 4 h) and (b) HeLa cells (1 μM, 4 h) using C3RA/C8RA (24 μM, 1 h). Panels 3/6: cells pretreated with Z-VAD(OMe)-FMK (50 μM, 1 h) before STS addition. Panels 1/4: normal cells (DMSO). (c) WB analysis of cleaved caspase-3/-8 from (a,b). (d) TPFM of normal/apoptotic Hela cells imaged by C3RA (24 μM, up) or Ac-DEVD-AMC (40 μM, down; λem = 420–500 nm). Panels 1/3: normal cells. Panels 2/4: STS-induced cells (1 μM, 4 h). Bottom inset: bright field. Top inset: one-photon images (λex = 405 nm). (e) Real-time imaging of caspase-3/-8-like activities in live BV2 cells using 24 μM of C3RA (top)/C8RA (bottom) upon STS (2 μM) stimulation over 2 h. (f) Graphical quantification of RFU extracted from (e). (g) WB analysis of time-dependent caspase-3/-8 cleavage from STS-induced (2 μM) BV2 lysates. (h) WB analysis of time-dependent caspase-3/-7/-8 activation by detection of cleaved caspase-3/-7/-8 from lysates of HeLa cells stimulated with STS (2 μM). (i) RFU from real-time imaging of caspase-3-like activity in live HeLa cells with C3RA/C3RM/C3RE (24 μM, added 1 h before STS) upon STS (2 μM) stimulation. (j) Representative images (t = 60 min) from (i). (k) IF of STS-stimulated (2 μM, 2 h) HeLa cells by anti-caspase-3 (p17) antibody (red) with 3D projections of z-stack images at 90° view and merged with MitoTracker (green, left) or ER tracker (cyan, right). (l) TPFM of caspase-1 activation in primary cortical neurons upon glucose deprivation (GD, 8 h) followed by 1-h incubation with C1RB (24 μM) or C1FS (12 μM; λem = 450–550 nm). Inset: bright field images. NC: neuron cells incubated in normal neurobasal medium. Scale bar = 10 μm in all images.
NIH/3T3, HeLa and BV2 cell lines used in our experiments were cultured in DMEM medium supplemented with 10% (for NIH/3T3 and HeLa) or 5% (for BV2) fetal bovine serum (FBS), with 100.0 mg/L streptomycin and 100 IU/mL penicillin. […]

Test in series [2]: not given
This is another data set of the same source.

Compound `CC(=O)N[C@@H](CC(=O)O)C(=O)N[C@@H](CCC(=O)O)C(=O)N[C@H](C(=O)N[C@@H](CC(=O)O)C(=O)Nc1ccc2cc(C(C)=O)ccc2c1)C(C)C` [C3RA, Ac-DEVD-AAN] yielded a λem (emission maximum) of 448 nm. Also, in series [1], the “intracellular two-photon fluorescence after STS treatment” value is “strong intracellular fluorescence”. For the same compound, the λex (absorption/excitation maximum) in series [2] amounted to 316 nm.

(Values after PMC4876444, “Two-Photon Enzymatic Probes Visualizing Sub-cellular/Deep-brain Caspase Activities in Neurodegenerative Models” (Scientific Reports, 2016).)
